Series [1] can be described thus: UV spectroscopy of decitabine-HPBCD complex formation. The note with it: absorbance at 262 nm, room temperature, 1:1 stoichiometry assumed, least-squares fit. The class given is physicochemical.
Series [2] is described as follows: Chemical stability of decitabine in cyclodextrin solutions (HPLC potency). The format is physicochemical. Conditions: 2-8° C. and 25° C., percentage of total peak areas at 220 nm, FIGS. 1 and 2. How it is done:
The chemical stability of decitabine in the cyclodextrin solutions and in the phophate buffer as prepared above was determined. The initial decitabine concentration for all the solutions was 17-18 mg/mL at the beginning of the experiment at 2-8° C.; 9-10 mg/mL at the beginning of the experiment at 25° C. Decitabine potency was assayed by a HPLC method, and expressed as a percentage of total peak areas at 220 nm.

For series [3] the following is noted: cited from earlier work.
Series [4] can be described thus: Solubility in 40% w/w cyclodextrin solutions versus potassium phosphate buffer. The format is physicochemical. Conditions: thermodynamic from solid, room temperature (20-25° C.). Here is the method: Aqueous solutions of cyclodextrin at pH 6.7-7.2 were prepared by dissolving 4 parts of cyclodextrins (hydroxypropyl α-cyclodextrin (HPACD), hydroxypropyl β-cyclodextrin (HPBCD), β-cyclodextrin (BCD), hydroxypropyl γ-cyclodextrin (HPGCD), or CAPTISOL) in 6 parts of potassium phosphate buffer (50 mM KH2PO4, pH 7.0), resulting solutions of 40% w/w cyclodextrins.
Aqueous solutions of cyclodextrin at pH 6.7-7.2 were prepared by dissolving 4 parts of cyclodextrins (hydroxypropyl α-cyclodextrin (HPACD), hydroxypropyl β-cyclodextrin (HPBCD), hydroxypropyl γ-cyclodextrin (HPGCD), or CAPTISOL) in 6 parts of potassium phosphate buffer (50 mM KH2PO4, pH 7.0), resulting solutions of 40% w/w cyclodextrins.

Setting [5] is: 40% w/w Captisol aqueous solution, aqueous with cosolvent or surfactant or cyclodextrin, 40% Captisol (w/w, pH 6.7).
Setting [6] is: 40% w/w HPACD aqueous solution, aqueous with cosolvent or surfactant or cyclodextrin, 40% HPACD (w/w, pH 7.0).
The mark [7] stands for this setting: 40% w/w HPBCD aqueous solution, aqueous with cosolvent or surfactant or cyclodextrin, 40% HPBCD (w/w, pH 7.2).
[8] abbreviates: potassium phosphate buffer, aqueous buffer, KPi (50 mM KH2PO4, pH 7.0).

SMILES strings stand for the structures. In brackets after ≈: the same amount, converted by molar mass. Where two headings read alike, the source gives them in different places.

Regarding `Nc1ncn([C@H]2C[C@H](O)[C@@H](CO)O2)c(=O)n1` [decitabine, 5-aza-2′-deoxycytidine], the “Complex formation constant Kf for decitabine-HPBCD complex” value in series [1] came to 23 M⁻¹. For the same molecule, the “Stability of decitabine in aqueous solution with cyclodextrins as excipients” value in series [2] is “dramatically improve the stability”. Besides, the entries for the “Steady-state plasma concentration (estimated)” value in series [3] (6-hour infusion of 100 mg/m^2) and in series [3] (infusion rate of 1 mg/kg/h) were 0.31 to 0.39 µg/mL and 0.2 to 0.5 µg/mL, respectively. Also, in series [3] (600-mg/m^2 infusion), the “Range of plasma concentrations” value was 0.41 to 16 µg/mL. For the same molecule, the Terminal half-life in series [3] (humans, measured by bioassay) was 10 to 35 min. In addition, the “Half-life after discontinuing the infusion” value in series [3] (humans) was 12 to 20 min. The “Total urinary excretion, % of the administered dose” value in series [3] (humans) is “less than 1%”. The Volume of distribution entry in series [3] (humans) is “about 4.6 L/kg”. Further, the Plasma concentration was 0.43 to 0.76 µg/mL in series [3] (infusion times of 40-60 hours, infusion rate 1 mg/kg/h) and “about 0.4 μg/ml” in series [3] (patients, 100 mg/m^2 as a 3-hour infusion). Moreover, the “Penetration into the cerebrospinal fluid, % of the plasma concentration” value in series [3] (man, end of a 36-hour intravenous infusion) is given as 14-21%. Moreover, the solubility in series [4] (setting [5]) was determined as 42 mg/mL (≈ 184 mM); in series [4] (setting [6]), 18 mg/mL (≈ 78.9 mM); in series [4] (setting [7]), 44 mg/mL (≈ 193 mM); in series [4] (setting [8]) it was 18 mg/mL (≈ 78.9 mM).

Regarding `Nc1ncn([C@@H]2O[C@H](CO)[C@@H](O)[C@H]2O)c(=O)n1` [5-azacytidine], the solubility in series [4] (setting [5]) was 26 mg/mL (≈ 106 mM); in series [4] (setting [6]), 20 mg/mL (≈ 81.9 mM); in series [4] (setting [7]), 26 mg/mL (≈ 106 mM); in series [4] (40% w/w HPGCD aqueous solution, aqueous with cosolvent or surfactant or cyclodextrin, 40% HPGCD (w/w, pH 7.0)), 22 mg/mL (≈ 90.1 mM); in series [4] (setting [8]), 19 mg/mL (≈ 77.8 mM).

The term solubility denotes how much of the substance goes into solution per volume. High values mean a readily soluble substance, low ones a poorly soluble substance.
